Results as given in ChEMBL document CHEMBL1201862, “PubChem BioAssay data set” (2004).
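A five-concentration, 48-hour dose response in 96-well plates underlies each endpoint, interpolated linearly between surrounding concentrations. GI50: concentration for 50% inhibition of growth.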 Active and inactive are the calls of the source. No stated cut-off is given here; in the data, active = GI50 up to about 1.1 µM and inactive = higher.

Tests used:
Assay in all cases: NCI tumour cell line growth inhibition, 48 h
[1] = tested on: SNB-75
[2] = tested on: A498
[3] = tested on: HT-29
[4] = tested on: SF-295
[5] = tested on: COLO 205
[6] = tested on: OVCAR-3
[7] = tested on: CCRF-CEM
[8] = tested on: SK-MEL-2
[9] = tested on: KM12
[10] = tested on: IGROV-1
[11] = tested on: SF-539
[12] = tested on: NCI-H23
[13] = tested on: HCT-116
[14] = tested on: HOP-62
[15] = tested on: NCI-H522
[16] = tested on: UO-31
[17] = tested on: UACC-62
[18] = tested on: RXF 393
[19] = tested on: MOLT-4
[20] = tested on: SNB-19

Row | Compound | GI50 [1] | GI50 [2] | GI50 [3] | GI50 [4] | GI50 [5] | GI50 [6] | GI50 [7] | GI50 [8] | GI50 [9] | GI50 [10] | GI50 [11] | GI50 [12] | GI50 [13] | GI50 [14] | GI50 [15] | GI50 [16] | GI50 [17] | GI50 [18] | GI50 [19] | GI50 [20]
1 | CCCC(=O)Nc1cc(/C=C/C(=O)N2CC(CCl)c3c2cc(OCc2ccccc2)c2[nH]cc(C)c32)n(C)c1 (stereo not given) | 0.0675 µM (active) | 0.0953 µM (active) | 0.0687 µM (active) | 0.0317 µM (active) | 0.188 µM (active) | 0.127 µM (active) | 0.0101 µM (active) | 0.074 µM (active) | 0.102 µM (active) | 0.0211 µM (active) | 0.0472 µM (active) | 0.0139 µM (active) | 0.0272 µM (active) | 0.0491 µM (active) | 0.00849 µM (active) | 0.0493 µM (active) | 0.027 µM (active) | 0.0383 µM (active) | 0.00855 µM (active) | 0.337 µM (active)
2 | Nc1ncnc2c1ncn2[C@@H]1O[C@H](COP(=O)(O)O)[C@@H](O)[C@@H]1O | > 50 µM (inactive) | > 50 µM (inactive) | > 50 µM (inactive) | > 50 µM (inactive) | > 50 µM (inactive) | > 50 µM (inactive) | > 50 µM (inactive) | > 50 µM (inactive) | > 50 µM (inactive) | > 50 µM (inactive) | > 50 µM (inactive) | > 50 µM (inactive) | > 50 µM (inactive) | > 50 µM (inactive) | > 50 µM (inactive) | > 50 µM (inactive) | > 50 µM (inactive) | > 50 µM (inactive) | > 38.8 µM (inactive) | > 50 µM (inactive)
3 | O=NN(CCCl)C(=O)NC1CCSc2ccccc21 (stereo not given) | 87.3 µM (inactive) | > 100 µM (inactive) | > 100 µM (inactive) | 57.8 µM (inactive) | > 100 µM (inactive) | > 100 µM (inactive) | 10.3 µM (inactive) | > 100 µM (inactive) | > 100 µM (inactive) | > 100 µM (inactive) | 27.4 µM (inactive) | > 100 µM (inactive) | > 100 µM (inactive) | 0.776 µM (active) | > 100 µM (inactive) | > 91.2 µM (inactive) | 25 µM (inactive) | > 100 µM (inactive) | 35.1 µM (inactive) | > 90.2 µM (inactive)
4 | COc1ccc(C23C(=O)c4ccccc4N2O[C@H]2C(=O)N(c4ccccc4)C(=O)[C@H]23)cc1 (stereo not given in full) | > 100 µM (inactive) | > 100 µM (inactive) | > 100 µM (inactive) | > 100 µM (inactive) | > 100 µM (inactive) | > 100 µM (inactive) | > 100 µM (inactive) | > 100 µM (inactive) | > 100 µM (inactive) | > 100 µM (inactive) | > 100 µM (inactive) | > 100 µM (inactive) | > 100 µM (inactive) | > 100 µM (inactive) | 14 µM (inactive) | > 100 µM (inactive) | > 100 µM (inactive) | > 100 µM (inactive) | > 100 µM (inactive) | > 100 µM (inactive)
5 | C=C1C(=O)C[C@@]23CCC[C@@]12CC(O)C3 (stereo not given in full) | 18.4 µM (inactive) | 15 µM (inactive) | 14.6 µM (inactive) | 37.8 µM (inactive) | 21.3 µM (inactive) | 13.1 µM (inactive) | 10.3 µM (inactive) | 24.6 µM (inactive) | 20.8 µM (inactive) | 3.93 µM (inactive) | 25.6 µM (inactive) | 21.8 µM (inactive) | 19 µM (inactive) | > 63 µM (inactive) | 2.37 µM (inactive) | 37.6 µM (inactive) | 13.6 µM (inactive) | 13.7 µM (inactive) | 23.4 µM (inactive) | 85.7 µM (inactive)
6 | Cc1ccc(S(=O)(=O)N/N=C/c2c(O)ccc3ccccc23)cc1 | 20.7 µM (inactive) | 16.7 µM (inactive) | 32.9 µM (inactive) | 16.2 µM (inactive) | 19.5 µM (inactive) | 19.9 µM (inactive) | 36.7 µM (inactive) | 20.8 µM (inactive) | 18.9 µM (inactive) | 6.68 µM (inactive) | 16.1 µM (inactive) | 30.5 µM (inactive) | 15.3 µM (inactive) | 37.7 µM (inactive) | 17 µM (inactive) | 53.7 µM (inactive) | 18.2 µM (inactive) | 19.4 µM (inactive) | 20.5 µM (inactive) | 41.1 µM (inactive)
7 | Cc1ccc2c3c4c(ccc13)C(C)(C)OC4=C(C(C)C)C2=O | 26.4 µM (inactive) | > 100 µM (inactive) | 13.8 µM (inactive) | 88.3 µM (inactive) | 31.3 µM (inactive) | 13.8 µM (inactive) | 48.4 µM (inactive) | 17 µM (inactive) | 54.3 µM (inactive) | 55.3 µM (inactive) | > 100 µM (inactive) | 70.5 µM (inactive) | 53.1 µM (inactive) | 15.6 µM (inactive) | 26.8 µM (inactive) | > 100 µM (inactive) | 50.9 µM (inactive) | 17.4 µM (inactive) | 26.4 µM (inactive) | > 100 µM (inactive)
8 | CCCCC(C)C1CCC2(C)C=CC(=O)C(C)=C2C1O (stereo not given) | > 100 µM (inactive) | > 100 µM (inactive) | > 100 µM (inactive) | > 100 µM (inactive) | > 100 µM (inactive) | > 100 µM (inactive) | > 100 µM (inactive) | > 100 µM (inactive) | > 100 µM (inactive) | > 100 µM (inactive) | > 100 µM (inactive) | > 100 µM (inactive) | > 100 µM (inactive) | > 100 µM (inactive) | > 100 µM (inactive) | > 100 µM (inactive) | > 100 µM (inactive) | > 100 µM (inactive) | > 100 µM (inactive) | > 100 µM (inactive)
9 | O=C(CCC(=O)Nc1ccccc1C(F)(F)F)N/N=C1\C(=N\NC(=O)CCC(=O)Nc2ccccc2C(F)(F)F)C(c2ccc3c(c2)OCO3)Oc2ccccc21 (stereo not given) | 10 µM (inactive) | 51.3 µM (inactive) | 35.9 µM (inactive) | 8.32 µM (inactive) | > 100 µM (inactive) | 3.43 µM (inactive) | 4.26 µM (inactive) | > 31.9 µM (inactive) | 26.2 µM (inactive) | 16.9 µM (inactive) | 12 µM (inactive) | 22.8 µM (inactive) | 5.9 µM (inactive) | 4.28 µM (inactive) | 4.74 µM (inactive) | 5.64 µM (inactive) | 5.46 µM (inactive) | 11.8 µM (inactive) | 3.01 µM (inactive) | 13.2 µM (inactive)
10 | [N-]=[N+]=CC(=O)c1ccccc1C#CCCc1ccccc1 | 15.6 µM (inactive) | 28.4 µM (inactive) | 16.6 µM (inactive) | 40.4 µM (inactive) | 32 µM (inactive) | 20.2 µM (inactive) | 10.9 µM (inactive) | 27.2 µM (inactive) | 41.2 µM (inactive) | 36.9 µM (inactive) | 36.6 µM (inactive) | 21.5 µM (inactive) | 16.6 µM (inactive) | 31.6 µM (inactive) | 1.05 µM (active) | 22.7 µM (inactive) | 18.6 µM (inactive) | 30 µM (inactive) | 12.1 µM (inactive) | 38.3 µM (inactive)
11 | Cc1c2ccnc(-c3ccccc3)c2cc2c1[nH]c1ccccc12 | 2.33 µM (inactive) | 0.219 µM (active) | 0.887 µM (active) | 0.879 µM (active) | 0.735 µM (active) | 3.4 µM (inactive) | 3.26 µM (inactive) | 2.62 µM (inactive) | 1.45 µM (inactive) | 2.63 µM (inactive) | 2.45 µM (inactive) | 1.01 µM (active) | 2.12 µM (inactive) | 2.6 µM (inactive) | 4.52 µM (inactive) | 1.33 µM (inactive) | 1.09 µM (active) | 2.42 µM (inactive) | 2.75 µM (inactive) | 3.66 µM (inactive)
12 | CC(C)NC(=O)OCc1c(COC(=O)NC(C)C)c(-c2cc[n+](COC(=O)Cc3ccccc3)cc2)n2c1CCC2 | 54.6 µM (inactive) | > 100 µM (inactive) | > 100 µM (inactive) | 92 µM (inactive) | > 100 µM (inactive) | > 100 µM (inactive) | 38.5 µM (inactive) | > 100 µM (inactive) | > 100 µM (inactive) | > 100 µM (inactive) | > 100 µM (inactive) | 56.6 µM (inactive) | > 100 µM (inactive) | 72.9 µM (inactive) | > 100 µM (inactive) | > 100 µM (inactive) | 56.2 µM (inactive) | > 100 µM (inactive) | 47.8 µM (inactive) | > 100 µM (inactive)
